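Assay format: 96-well plates, 48-hour exposure. TGI is the concentration that stops growth completely.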
What was measured:
Assay in all cases: NCI tumour cell line growth inhibition, 48 h
[1] = tested on: KM12 colon
[2] = tested on: MCF7 breast
[3] = tested on: OVCAR-3 ovarian
[4] = tested on: ACHN renal
[5] = tested on: NCI-H226 lung
[6] = tested on: PC-3 prostate
[7] = tested on: MDA-MB-231 breast
[8] = tested on: T-47D breast
[9] = tested on: SK-OV-3 ovarian
[10] = tested on: RXF 393 renal
[11] = tested on: UACC-62 melanoma
[12] = tested on: SR leukemia
[13] = tested on: SK-MEL-2 melanoma
[14] = tested on: EKVX NSCLC
[15] = tested on: MALME-3M melanoma
[16] = tested on: SNB-75 CNS
[17] = tested on: HOP-92 NSCLC
[18] = tested on: MDA-MB-435
[19] = tested on: SNB-19 CNS
[20] = tested on: A549 NSCLC
[21] = tested on: HS 578T breast
[22] = tested on: MOLT-4 leukemia
[23] = tested on: UO-31 renal
[24] = tested on: HOP-62 NSCLC
[25] = tested on: SW-620 colon
[26] = tested on: NCI-H460 lung
[27] = tested on: TK-10 renal
[28] = tested on: SF-295 CNS
[29] = tested on: 786-0 renal
[30] = tested on: OVCAR-8 ovarian
[31] = tested on: HCT-15 colon
[32] = tested on: HCT-116 colon
[33] = tested on: IGROV1 ovarian
[34] = tested on: SF-539 CNS
[35] = tested on: M14 melanoma
[36] = tested on: U251 CNS
[37] = tested on: SK-MEL-5 melanoma
[38] = tested on: K-562 leukemia
[39] = tested on: SF-268 CNS
[40] = tested on: HT29 colon
[41] = tested on: UACC-257 melanoma
[42] = tested on: CCRF-CEM leukemia
[43] = tested on: DU-145 prostate
[44] = tested on: A498 renal
[45] = tested on: OVCAR-5 ovarian
[46] = tested on: HL-60(TB) leukemia
[47] = tested on: LOX IMVI melanoma
[48] = tested on: SK-MEL-28 melanoma
[49] = tested on: BT-549 breast
[50] = tested on: SN12C renal
[51] = tested on: MDA-N
[52] = tested on: NCI-H23 lung
[53] = tested on: COLO 205 colon
[54] = tested on: NCI/ADR-RES ovarian
[55] = tested on: OVCAR-4 ovarian
[56] = tested on: HCC-2998 colon
[57] = tested on: CAKI-1 renal
[58] = tested on: NCI-H522 lung

Measured: TGI

O=C(O)C1(C(O)c2ccccc2)SCCCS1 (centres undefined)
not listed: [53] | [54] | [55] | [56] | [57] | [58]
> 10 µM: all other assays above

COC(=O)[C@@H]1COC(=O)N1
not listed: [12]
> 100 µM: all other assays above

From PubChem BioAssay (NCI)
